Where two headings read alike, the source gives them in different places. A value given as a limit tells only on which side of the number the result lay.

The IC50 is the concentration needed to halve the response being measured.

One test has as its system AChE. To be noted: cited from earlier work; for IC50: read-out: AChE IC50.
The next test relates to BChE. Conditions: read-out: BChE IC50; cited from earlier work.
The target in test [1] is T1, recombinant prolyl oligopeptidase (POP) (Homo sapiens, UniProt P48147).
T1 construct: purchased Sigma-Aldrich (Prague, Czech Republic)
T1 sequence (P48147 1-710): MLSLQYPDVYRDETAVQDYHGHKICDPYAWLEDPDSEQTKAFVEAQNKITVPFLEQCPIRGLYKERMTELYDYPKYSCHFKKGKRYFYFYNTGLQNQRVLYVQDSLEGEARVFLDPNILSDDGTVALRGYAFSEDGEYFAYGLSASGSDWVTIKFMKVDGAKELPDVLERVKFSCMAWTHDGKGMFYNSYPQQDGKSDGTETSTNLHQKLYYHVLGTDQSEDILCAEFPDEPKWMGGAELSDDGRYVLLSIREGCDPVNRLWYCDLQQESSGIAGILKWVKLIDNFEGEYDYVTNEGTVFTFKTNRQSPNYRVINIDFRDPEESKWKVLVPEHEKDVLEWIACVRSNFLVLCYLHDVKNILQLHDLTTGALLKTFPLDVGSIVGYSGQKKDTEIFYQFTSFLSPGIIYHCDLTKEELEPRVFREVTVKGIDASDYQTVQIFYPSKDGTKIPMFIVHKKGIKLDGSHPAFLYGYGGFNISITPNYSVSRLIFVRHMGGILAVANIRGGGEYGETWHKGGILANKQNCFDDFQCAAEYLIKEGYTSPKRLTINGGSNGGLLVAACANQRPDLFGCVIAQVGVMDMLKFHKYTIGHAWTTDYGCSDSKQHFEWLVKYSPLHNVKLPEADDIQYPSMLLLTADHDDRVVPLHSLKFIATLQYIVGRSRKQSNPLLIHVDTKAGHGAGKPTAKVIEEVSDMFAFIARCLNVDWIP
Put plainly: Prolyl oligopeptidase assay, substrate Z-Gly-Pro-p-nitroanilide. The class given is biochemical.

In test [2] the target is human plasma butyrylcholinesterase (BChE) (Homo sapiens, UniProt P06276). As to the kind of experiment: biochemical.
Test [3] concerns the target T2, human blood acetylcholinesterase (AChE) (Homo sapiens, UniProt P22303).
T2 construct: Red blood cell lysate was used as a source of AChE and human plasma as a source of BChE; from tissue; host or cells: human erythrocytes (lysate) from freshly drawn blood of healthy volunteers
Put plainly: AChE inhibition, modified Ellman's method, red blood cell lysate. The class given is biochemical. For orientation: Ellman's reagent forms a yellow product with free thiols.

Test [4] addresses T1, recombinant prolyl oligopeptidase (POP). To be noted: tested previously; cited from earlier work.
Where [5] appears, read: isolated from Fumaria vaillantii, review of Sener and Orhan.

T2 sequence (P22303 32-617 isoform P22303-2 limits assumed): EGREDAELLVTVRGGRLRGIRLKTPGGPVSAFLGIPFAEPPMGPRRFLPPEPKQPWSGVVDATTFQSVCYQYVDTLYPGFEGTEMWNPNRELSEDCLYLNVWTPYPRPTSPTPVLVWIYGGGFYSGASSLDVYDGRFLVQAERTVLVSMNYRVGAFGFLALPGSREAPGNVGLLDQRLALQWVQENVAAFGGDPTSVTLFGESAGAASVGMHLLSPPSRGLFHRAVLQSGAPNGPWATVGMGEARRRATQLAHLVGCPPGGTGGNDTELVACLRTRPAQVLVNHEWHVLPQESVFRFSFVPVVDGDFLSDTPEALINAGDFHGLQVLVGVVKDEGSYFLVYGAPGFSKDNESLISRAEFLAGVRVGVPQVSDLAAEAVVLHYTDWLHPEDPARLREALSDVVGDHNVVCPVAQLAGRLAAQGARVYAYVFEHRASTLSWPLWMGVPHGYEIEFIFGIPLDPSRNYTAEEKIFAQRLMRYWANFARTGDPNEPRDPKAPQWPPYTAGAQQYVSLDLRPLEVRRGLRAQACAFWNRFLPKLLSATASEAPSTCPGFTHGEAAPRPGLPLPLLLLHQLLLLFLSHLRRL
human plasma butyrylcholinesterase (BChE), sequence (P06276 29-602): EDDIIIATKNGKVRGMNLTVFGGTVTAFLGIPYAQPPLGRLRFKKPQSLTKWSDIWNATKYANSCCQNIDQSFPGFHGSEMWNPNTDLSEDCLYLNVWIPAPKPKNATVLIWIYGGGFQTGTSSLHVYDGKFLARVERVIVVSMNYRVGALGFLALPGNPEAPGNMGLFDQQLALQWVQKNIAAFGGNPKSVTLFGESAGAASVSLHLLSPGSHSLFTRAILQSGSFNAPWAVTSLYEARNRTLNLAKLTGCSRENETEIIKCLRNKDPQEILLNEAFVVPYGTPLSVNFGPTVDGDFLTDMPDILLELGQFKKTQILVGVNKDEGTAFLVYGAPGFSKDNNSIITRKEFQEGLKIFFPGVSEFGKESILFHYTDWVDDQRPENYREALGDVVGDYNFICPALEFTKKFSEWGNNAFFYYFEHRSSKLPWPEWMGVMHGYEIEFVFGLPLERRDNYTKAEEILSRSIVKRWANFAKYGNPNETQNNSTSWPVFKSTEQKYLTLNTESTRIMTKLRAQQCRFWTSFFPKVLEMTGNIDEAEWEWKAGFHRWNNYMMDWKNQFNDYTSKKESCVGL

In the case of protopine [Compound 2], in the test with AChE, the “Type of AChE inhibition” value was “dose-dependent, specific, reversible and competitive AChE inhibitor”. The IC50 in the test with AChE (setting [5]) was 1.8 µM.

Take `COc1cc2c(cc1O)C(Cc1ccc(O)cc1)N(C)CC2` (single isomer, unassigned; (+)) [(+)-N-methylcoclaurine]: the IC50 with BChE is 15 ± 1.4 µM; in the test with AChE, greater than 220 µM.

With `COc1cc2c(cc1O)[C@@H]1Cc3ccc(OC)c(O)c3[C@H](C2)N1C` [Compound 6, (–)-munitagine], the half-inhibitory concentration (IC50) in test [1] was 277 ± 31.3 µM; in test [2] it was 837 ± 23 µM; in test [3], 62.3 ± 5.8 µM.

For the compound `COc1ccc(C[C@H]2c3cc(O)c(OC)cc3CCN2C)cc1O` [(+)-reticuline], the figures for the IC50 in the test with BChE and in the test with AChE were 33.6 ± 3 µM and greater than 220 µM, respectively.

Regarding `COc1cc2c(cc1O)[C@@H]1Cc3cc4c(cc3[C@H](C2)N1C)OCO4` [(–)-caryachine], the IC50 in the test on AChE is 19.6 ± 0.4 µM.

For the compound `COc1cc2c(cc1OC)[C@@H]1Cc3cc(OC)c(OC)cc3[C@H](C2)N1C` [Compound 3, (–)-argemonine], the IC50 is 337 ± 83.1 µM in test [1], 885 ± 119 µM in test [2] and greater than 1000 µM in test [3].

Turning to `COc1ccc(CC2c3cc4c(cc3CCN2C)OCO4)c(C=O)c1OC` (single isomer, unassigned; (+)) [canadaline, (+)-canadaline], in the test with AChE, the half-maximal inhibitory concentration (IC50) was 20.1 µM.

With `COc1cc2c(cc1OC)[C@@H]1Cc3ccc(OC)c(O)c3[C@H](C2)N1C` [Compound 5, (–)-platycerine], the figures for the IC50 in test [2], in test [4] and in test [3] were greater than 1000 µM, 687 ± 74 µM and 224 ± 19.6 µM, respectively.

With (–)-californidine, the IC50 in the test on AChE is 36.7 ± 0.9 µM.

`COc1cc2c(cc1O)[C@@H]1Cc3cc(OC)c(OC)cc3[C@H](C2)N1C` [Compound 7, (–)-norargemonine]: the IC50 in test [2] is greater than 1000 µM; in test [3], 205 ± 11.7 µM.

Turning to `COc1ccc2c(c1OC)CN(C)CCc1cc3c(cc1C(=O)C2)OCO3` [Compound 4, allocryptopine], the IC50 in test [1] was greater than 1000 µM; in test [2], 530 ± 28.2 µM; in test [3], 250 ± 25 µM; with AChE (setting [5]), 1.3 µM.

Values taken from article PMC6152004 (Molecules : A Journal of Synthetic Chemistry and Natural …, 2017).
